Patent publication US9931331B2 (priority 2013, dated 2018)
“And” between values parts separate entries of the source, which are not always exact repeats. Identical values can stand only once. Like-named read-outs stand apart in the source and are kept apart here. Residues, ends and D or L forms follow the SMILES beside them. *: point of attachment. Cbz = O=C(OCc1ccccc1)*

Columns and labels:
[1] = test system: kidney cancer cell (Caki-1); test: Cell viability (calcein-AM / ethidium homodimer-1), Caki-1
Description: (§1) Strains of cervical cancer cell (HeLa), kidney cancer cell (Caki-1), brain tumor cell (T98G), breast cancer cell (MDA-MB 435S), and colon cancer cell (DLD-1), multiple myeloma cell (RPMI-8226), and a strain of normal breast epithelial cell (MCF-10A) were available from ATCC (American Type Culture Collection, USA). The strains of cervical cancer cell (HeLa), kidney cancer cell (Caki-1), brain tumor cell (T98G), breast cancer cell (MDA-MB 435S), and colon cancer cell (DLD-1) were cultured by using a DMEM medium including 10% fetal bovine serum (FBS), 2 mM of L-glutamin, 100 i.u./ml of penicillin, and […] of streptomycin for the culture and maintenance; multiple myeloma cell (RPMI-8226) was cultured by using a RPMI1640 medium including 10% FBS, 100 i.u./ml of penicillin, and […] of streptomycin; and the strain of normal breast epithelial cell (MCF-10A) was cultured by using a mammary epithelial growth medium (MEGM) including a bovine pituitary extract, insulin, human epidermal growth factor, hydrocortisone, and antibiotics, and the culture conditions included 37° C. and 5% CO2 in an incubator.
(§2) Then, the cells were stained by using 2 μM calcein-AM and 4 μM ethidium homodimer-1, and cell viability was measured by using a fluorescent microscope (Axiovert 200M, available from Carl Zeiss, Jena, Germany).

[2] = test system: brain tumor cell (T98G); test: Cell viability (calcein-AM / ethidium homodimer-1), T98G; conditions: 24 h
Description: as §1, §2

[3] = test system: colon cancer cell (DLD-1); test: Cell viability (calcein-AM / ethidium homodimer-1), DLD-1; conditions: for cytotoxicity at 1 µM: read-out: cell viability decreased
Description: as §1, §2

[4] = in vitro; conditions: human
Description: as §1, §2

[5] = test system: multiple myeloma cell (RPMI-8226); test: Cell viability (calcein-AM / ethidium homodimer-1), RPMI-8226; conditions: for Cell viability: RPMI-8226, 24 h
Description: as §1, §2

[6] = test system: breast cancer cell (MDA-MB 435S); test: Cell viability (calcein-AM / ethidium homodimer-1), MDA-MB 435S; conditions: 24 h
Description: as §1, §2

[7] = test system: cervical cancer cell (HeLa); test: Cell viability (calcein-AM / ethidium homodimer-1), HeLa; conditions: 24 h
Description: as §1, §2

[8] = test system: normal breast epithelial cell (MCF-10A); test: Cell viability (calcein-AM / ethidium homodimer-1), MCF-10A; conditions: MCF-10A, 24 h
Description: as §1, §2

[9] = Homo sapiens, CAKI-1, 24 h, read-out: Cell viability
[10] = Homo sapiens, CAKI-1, 24 h, read-out: cell viability decreased
[11] = Homo sapiens, read-out: Cell viability
[12] = Homo sapiens, DLD-1, 24 h, read-out: Cell viability
[13] = Homo sapiens, RPMI-8226, 24 h, read-out: Cell viability
[14] = Homo sapiens, MDA-MB-435S, read-out: Cell viability
[15] = Homo sapiens, read-out: cell viability decreased
[16] = Homo sapiens, MDA-MB-435S, read-out: cell viability decreased

SMILES: CC(C)C[C@H](NC(=O)[C@H](Cc1ccccc1)NC(=O)c1cnccn1)B(O)O [Bortezomib, N-(2-pyrazine)carbonyl-L-phenylalanine-L-leucine boronic acid]
- viability at 0.01 µM [1, 9]: 100%
- viability at 0.02 µM [1, 9]: 78%
- cytotoxicity at 0.02 µM [1, 10]: ~22%
- viability at 0.005 µM [2, 11]: 99.7%
- viability at 0.01 µM [2, 11]: 89.7%
- viability at 0.04 µM [3, 12]: 99.7%
- viability at 0.06 µM [3, 12]: 95%
- viability at 24 h, 15 nM [4]: 98.8%
- viability at 24 h, 30 nM [4]: 94.6%
- viability at 0.001 µM [5, 13]: 100%
- viability at 0.002 µM [5, 13]: 81.7%
- viability at 0.0075 µM [6, 14]: 100%
- viability at 0.015 µM [6, 14]: 91%
- cancer cell toxicity ([6]; MDA-MB 435S, bortezomib alone up to 15 nM): did not induce cancer cell toxicity
- viability at 0.02 µM [7, 11]: 100%
- viability at 0.04 µM [7, 11]: 90.8%
- cytotoxicity at 0.04 µM [7, 15]: ~10%

SMILES: CC(C)C[C@H](NC(=O)[C@H](CCc1ccccc1)NC(=O)CN1CCOCC1)C(=O)N[C@@H](Cc1ccccc1)C(=O)N[C@@H](CC(C)C)C(=O)[C@@]1(C)CO1 [Carfilzomib]
- viability at 0.05 µM [1, 9]: 95.6%
- viability at 0.1 µM [1, 9]: 95.2%
- viability at 0.02 µM [2, 11]: 100%
- viability at 0.04 µM [2, 11]: 93%
- viability at 0.1 µM [3, 12]: 98.2%
- viability at 0.2 µM [3, 12]: 94.7%
- viability at 24 h, 50 nM [4]: 99.5%
- viability at 24 h, 100 nM [4]: 98.1%
- viability at 0.005 µM [5, 13]: 95.8%
- viability at 0.01 µM [5, 13]: 63.4%
- viability at 0.025 µM [6, 14]: 87.1%
- viability at 0.05 µM [6, 14]: 84.4%
- cytotoxicity at 0.05 µM [6, 16]: ~15%
- viability at 0.05 µM [7, 11]: 90%
- viability at 0.1 µM [7, 11]: 89.8%
- cytotoxicity at 0.1 µM [7, 15]: ~10%

SMILES: CC1=C(O)C(=O)C=C2C1=CC=C1[C@@]2(C)CC[C@@]2(C)[C@@H]3C[C@](C)(C(=O)O)CC[C@]3(C)CC[C@]12C [Celastrol]
- viability at 1 µM [1, 9]: 100%
- viability at 2 µM [1, 9]: 69.6%
- cytotoxicity at 2 µM [1, 10]: ~30%
- viability at 1 µM ([2]; Homo sapiens, read-out: Cell viability, T98G, celastrol 1 μM alone): 100%
- viability at 2 µM ([2]; Homo sapiens, read-out: Cell viability, T98G, celastrol 2 μM alone): 91.3%
- cytotoxicity at 2 µM [2, 15]: ~9%
- viability at 0.5 µM [3, 12]: 90.5%
- viability at 1 µM [3, 12]: 88.7%
- cytotoxicity at 1 µM ([3]; Homo sapiens, DLD-1, 24 h): ~11%
- viability at 24 h, 0.25 μM ([4]; Cell viability, MCF-10A, celastrol 0.25 μM alone, 24 h): 98.9%
- viability at 24 h, 0.5 μM ([4]; Cell viability, MCF-10A, celastrol 0.5 μM alone, 24 h): 95.9%
- viability at 0.05 µM [5, 13]: 90.7%
- viability at 0.1 µM [5, 13]: 69%
- viability at 0.25 µM [6, 14]: 100%
- viability at 0.5 µM [6, 14]: 92.5%
- cytotoxicity at 0.5 µM ([6]; Homo sapiens, MDA-MB-435S, read-out: cell viability decreased, MDA-MB 435S, celastrol alone 0.5 μM): ~7%
- viability at 0.5 µM ([7]; Homo sapiens, read-out: Cell viability, HeLa, celastrol 0.5 μM alone): 100%
- viability at 1 µM ([7]; Homo sapiens, read-out: Cell viability, HeLa, celastrol 1 μM alone): 88.4%
- cytotoxicity at 1 µM [7, 15]: ~11%

SMILES: COc1cc(/C=C/C(=O)CC(=O)/C=C/c2ccc(O)c(OC)c2)ccc1O [Curcumin]
- viability at 15 µM [1, 9]: 78.5%
- viability at 30 µM [1, 9]: 68.2%
- cytotoxicity at 30 µM [1, 10]: ~32%
- viability at 10 µM [2, 11]: 99.7%
- viability at 20 µM [2, 11]: 96.5%
- viability at 20 µM [3, 12]: 96.7%
- viability at 30 µM [3, 12]: 89%
- viability at 24 h, 10 μM [4]: 97.7%
- viability at 24 h, 20 μM [4]: 95.9%
- viability at 10 µM [5, 13]: 93.6%
- viability at 20 µM [5, 13]: 61.9%
- viability at 10 µM [6, 14]: 70.7%
- viability at 20 µM [6, 14]: 58.8%
- cytotoxicity at 20 µM [6, 16]: ~41%
- viability at 10 µM [7, 11]: 100%
- viability at 20 µM [7, 11]: 91.3%
- cytotoxicity at 20 µM [7, 15]: ~9%

SMILES: CC[C@H](C)[C@H](NC(=O)[C@H]([C@@H](C)CC)N(C)C(C)=O)C(=O)N[C@H](C(=O)N[C@@H](CC(C)C)C(=O)[C@@]1(C)CO1)[C@@H](C)O [Epoxomicin]
- Cell viability ([1]; Caki-1, epoxomicin 20 nM alone, 24 h): 100
- cell viability decreased ([1]; Caki-1, epoxomicin alone 40 nM, 24 h): about 35%
- cancer cell toxicity ([1]; Caki-1, epoxomicin alone up to 20 nM, 24 h): did not induce cancer cell toxicity
- Cell viability ([2]; epoxomicin 5 nM alone): 95.66
- Cell viability ([2]; epoxomicin 10 nM alone): 79.79
- Cell viability ([3]; DLD-1, epoxomicin 20 nM alone, 24 h): 99.70
- Cell viability ([8]; epoxomicin 10 nM alone): 97.62
- Cell viability ([8]; epoxomicin 20 nM alone): 94.36
- Cell viability ([5]; epoxomicin 2.5 nM alone): 100
- Cell viability ([5]; epoxomicin 5 nM alone): 92.72
- cell viability decreased ([6]; MDA-MB 435S, epoxomicin alone 15 nM): about 18%
- Cell viability ([7]; epoxomicin 10 nM alone): 100
- Cell viability ([7]; epoxomicin 20 nM alone): 87.73
- cell viability decreased ([7]; epoxomicin alone 20 nM): about 12%

SMILES: CN(C)C(=O)C(CCN1CCC(O)(c2ccc(Cl)cc2)CC1)(c1ccccc1)c1ccccc1 [Loperamide]
- viability at 20 µM [1, 9]: 100%
- viability at 40 µM [1, 9]: 65.1%
- cytotoxicity at 40 µM [1, 10]: ~35%
- viability at 10 µM ([2]; Homo sapiens, read-out: Cell viability, T98G, loperamide 10 μM alone): 100%
- viability at 20 µM ([2]; Homo sapiens, read-out: Cell viability, T98G, loperamide 20 μM alone): 99%
- cytotoxicity at 20 µM [2, 15]: ~10%
- Cell viability ([2]; loperamide 10 μM alone): 94.43
- cancer cell toxicity ([2]; loperamide alone up to 20 μM): did not exhibit significant cancer cell toxicity
- viability at 10 µM [3, 12]: 100%
- viability at 20 µM [3, 12]: 100%
- Cell viability ([8]; loperamide 10 μM alone): 95.21 and 100.29 and 95.11
- Cell viability ([8]; loperamide 20 μM alone): 99.25 and 94.65 and 100.37
- viability at 24 h, 10 μM ([4]; Cell viability, MCF-10A, loperamide 10 μM alone, 24 h): 97.7%
- viability at 24 h, 20 μM ([4]; Cell viability, MCF-10A, loperamide 20 μM alone, 24 h): 94.6%
- viability at 5 µM [5, 13]: 98.6%
- viability at 10 µM [5, 13]: 89.4%
- viability at 10 µM [6, 14]: 100%
- viability at 20 µM [6, 14]: 78%
- cytotoxicity at 20 µM ([6]; Homo sapiens, MDA-MB-435S, read-out: cell viability decreased, MDA-MB 435S, loperamide alone 20 μM): ~22%
- viability at 20 µM ([7]; Homo sapiens, read-out: Cell viability, HeLa, loperamide 20 μM alone): 99.7%
- viability at 40 µM ([7]; Homo sapiens, read-out: Cell viability, HeLa, loperamide 40 μM alone): 75.1%
- cytotoxicity at 40 µM [7, 15]: ~25%
- Cell viability ([7]; loperamide 20 μM alone): 99.81

SMILES: CC(C)C[C@@H](C=O)NC(=O)[C@H](CC(C)C)NC(=O)[C@H](CC(C)C)NC(=O)OCc1ccccc1 [MG132] (Cbz-Leu-Leu-Leu-aldehyde)
- viability at 0.5 µM [1, 9]: 100%
- viability at 1 µM [1, 9]: 89.3%
- cytotoxicity at 1 µM [1, 10]: ~10%
- viability at 0.125 µM [2, 11]: 99.7%
- viability at 0.25 µM [2, 11]: 96.5%
- cancer cell toxicity ([2]; MG132 up to 0.25 μM): did not exhibit significant cancer cell toxicity
- viability at 0.5 µM [3, 12]: 91.7%
- viability at 1 µM [3, 12]: 81.3%
- cytotoxicity at 1 µM ([3]; Homo sapiens, DLD-1, 24 h): ~19%
- viability at 24 h, 0.25 μM [4]: 95.2%
- viability at 24 h, 0.5 μM [4]: 92.9%
- viability at 0.1 µM [5, 13]: 100%
- viability at 0.2 µM [5, 13]: 99.1%
- viability at 0.25 µM [6, 14]: 100%
- viability at 0.5 µM [6, 14]: 93%
- cancer cell toxicity ([6]; MDA-MB 435S, MG132 alone up to 0.5 μM): did not exhibit significant cancer cell toxicity
- viability at 0.5 µM [7, 11]: 100%
- viability at 1 µM [7, 11]: 100%
- cell toxicity ([7]; MG132 alone up to 1 μM): did not exhibit cell toxicity

SMILES: CC(C)C[C@H](NC(=O)CNC(=O)c1cc(Cl)ccc1Cl)B1OC(=O)C(CC(=O)O)(CC(=O)O)O1 [MLN9708]
- viability at 0.1 µM [1, 9]: 83.3%
- viability at 0.2 µM [1, 9]: 75.7%
- cytotoxicity at 0.2 µM [1, 10]: ~25%
- viability at 0.05 µM [2, 11]: 92%
- viability at 0.1 µM [2, 11]: 84.7%
- viability at 0.1 µM [3, 12]: 98.2%
- viability at 0.2 µM [3, 12]: 95.2%
- viability at 24 h, 50 nM [4]: 98%
- viability at 24 h, 100 nM [4]: 92.3%
- viability at 0.02 µM [5, 13]: 100%
- viability at 0.04 µM [5, 13]: 80.8%
- viability at 0.1 µM [6, 14]: 97.5%
- viability at 0.2 µM [6, 14]: 93.3%
- cytotoxicity at 0.2 µM [6, 16]: ~10%
- viability at 0.1 µM [7, 11]: 100%
- viability at 0.2 µM [7, 11]: 97.8%
